Data set [1] relates to Escherichia coli. Nature of the data set: Activity at Escherichia coli beta-lactamase SHV-84.
For data set [2], the system named is Escherichia coli. Nature of the data set: Ratio of Kcat to Km in Escherichia coli beta-lactamase SHV-84.
For data set [3], the system named is Escherichia coli. The data set can be described thus: Antimicrobial activity against Escherichia coli DH5alpha. It is filed as functional.
The test system of data set [4] is Escherichia coli. Nature of the data set: Antimicrobial activity against Escherichia coli DH5alpha expressing SHV-1. It is filed as functional.
The test system of data set [5] is Escherichia coli. Nature of the data set: Antimicrobial activity against Escherichia coli DH5alpha expressing SHV-84. It is filed as functional.
In data set [6] the test system is Escherichia coli. Nature of the data set: Antimicrobial activity against Escherichia coli INSRA4590 expressing SHV-84. It is filed as functional.
Data set [7] deals with Escherichia coli. Nature of the data set: Antimicrobial activity against Escherichia coli DH5alpha in presence of 4 ug/ml Tazobactam beta-lactamase inhibitor. It counts as functional.
The subject of data set [8] is Escherichia coli. The data set can be described thus: Antimicrobial activity against Escherichia coli DH5alpha expressing SHV-1 in presence of 4 ug/ml Tazobactam beta-lactamase inhibitor. It is filed as functional.
In data set [9] the test system is Escherichia coli. The data set can be described thus: Antimicrobial activity against Escherichia coli DH5alpha expressing SHV-84 in presence of 4 ug/ml Tazobactam beta-lactamase inhibitor. It is filed as functional.
Data set [10] relates to Escherichia coli. The data set can be described thus: Antimicrobial activity against Escherichia coli INSRA4590 expressing SHV-84 in presence of 4 ug/ml Tazobactam beta-lactamase inhibitor. It counts as functional.
Data set [11] relates to Escherichia coli. The data set can be described thus: Antimicrobial activity against Escherichia coli DH5alpha in presence of 2 ug/ml clavulanic acid beta-lactamase inhibitor. It is filed as functional.
For data set [12], the system named is Escherichia coli. Nature of the data set: Antimicrobial activity against Escherichia coli DH5alpha expressing SHV-1 in presence of 2 ug/ml clavulanic acid beta-lactamase inhibitor. It is filed as functional.
The subject of data set [13] is Escherichia coli. Nature of the data set: Antimicrobial activity against Escherichia coli DH5alpha expressing SHV-84 in presence of 2 ug/ml clavulanic acid beta-lactamase inhibitor. It is filed as functional.
Data set [14] deals with Escherichia coli. Nature of the data set: Antimicrobial activity against Escherichia coli INSRA4590 expressing SHV-84 in presence of 2 ug/ml clavulanic acid beta-lactamase inhibitor. It is filed as functional.
Substrate in data set [15]: CC(=O)OCC1=C(C(=O)O)N2C(=O)[C@@H](NC(=O)Cc3cccs3)[C@H]2SC1
Nature of the data set: (§1) Activity at Escherichia coli beta-lactamase SHV-1.

Substrate in data set [16]: CC(C)(O/N=C(\C(=O)N[C@@H]1C(=O)N2C(C(=O)[O-])=C(C[n+]3ccccc3)CS[C@H]12)c1csc(N)n1)C(=O)O
The description is as §1.

Substrate in data set [17]: CC1(C)S[C@@H]2[C@H](NC(=O)Cc3ccccc3)C(=O)N2[C@H]1C(=O)O
Described as §1.

Substrate in data set [18]: CC1(C)S[C@@H]2[C@H](NC(=O)[C@H](C(=O)O)c3ccsc3)C(=O)N2[C@H]1C(=O)O
The data set is described as §1.

Substrate in data set [19]: CC1(C)S[C@@H]2[C@H](NC(=O)[C@H](N)c3ccc(O)cc3)C(=O)N2[C@H]1C(=O)O
The data set is described as §1.

Substrate in data set [20]: CCN1CCN(C(=O)N[C@@H](C(=O)N[C@@H]2C(=O)N3[C@@H]2SC(C)(C)[C@@H]3C(=O)O)c2ccccc2)C(=O)C1=O
Described as §1.

Substrate in data set [21]: CO/N=C(\C(=O)N[C@@H]1C(=O)N2C(C(=O)O)=C(COC(C)=O)CS[C@H]12)c1csc(N)n1
Described as §1.

Substrate in data set [22]: CC1(C)S[C@@H]2[C@H](NC(=O)Cc3ccccc3)C(=O)N2[C@H]1C(=O)O
Nature of the data set: (§2) Ratio of Kcat to Km in Escherichia coli beta-lactamase SHV-1.

Substrate in data set [23]: CC1(C)S[C@@H]2[C@H](NC(=O)[C@H](C(=O)O)c3ccsc3)C(=O)N2[C@H]1C(=O)O
The description is as §2.

Substrate in data set [24]: CC1(C)S[C@@H]2[C@H](NC(=O)[C@H](N)c3ccc(O)cc3)C(=O)N2[C@H]1C(=O)O
The data set is described as §2.

Substrate in data set [25]: CCN1CCN(C(=O)N[C@@H](C(=O)N[C@@H]2C(=O)N3[C@@H]2SC(C)(C)[C@@H]3C(=O)O)c2ccccc2)C(=O)C1=O
Described as §2.

The text below walks through data of ChEMBL document CHEMBL1255455, “Biochemical study of a new inhibitor-resistant beta-lactamase, SHV-84, produced by a clinical Escherichia coli strain” (2010).

Values after ≈ are worked out from the molar mass of the structure shown.

As for `CC1(C)S[C@@H]2[C@H](NC(=O)Cc3ccccc3)C(=O)N2[C@H]1C(=O)O`, in the data set on Escherichia coli [1], the Km (as a rule, the substrate concentration at which the rate is half of its maximum) stood at 64 µM and the kcat (as a rule, the maximal rate divided by the concentration of active sites) is 611 s⁻¹. For the same molecule, the kcat/Km (in general, the turnover number divided by the Michaelis constant) with Escherichia coli [2] was 9.5 µM⁻¹ s⁻¹.

`CCN1CCN(C(=O)N[C@@H](C(=O)N[C@@H]2C(=O)N3[C@@H]2SC(C)(C)[C@@H]3C(=O)O)c2ccccc2)C(=O)C1=O` [PIPERACILLIN]: the MIC (in general, the lowest concentration found to suppress growth) amounted to 1 µg/mL (≈ 1.93 µM) against Escherichia coli [3]; 64 µg/mL (≈ 124 µM) against Escherichia coli [4]; 128 µg/mL (≈ 247 µM) in the data set with Escherichia coli [5]; 64 µg/mL (≈ 124 µM) in the data set on Escherichia coli [6]; 1 µg/mL with Escherichia coli [7]; 2 µg/mL with Escherichia coli [8]. The values for the minimal inhibitory concentration (MIC) in the data set on Escherichia coli [9] and in the data set with Escherichia coli [10] were 2 µg/mL and 4 µg/mL, respectively. For the same molecule, the Michaelis-Menten constant (Km) with Escherichia coli [1] stood at 68 µM. In addition, in the data set on Escherichia coli [1], the catalytic constant (kcat) was determined as 406 s⁻¹. The kcat/Km in the data set on Escherichia coli [2] stood at 6 µM⁻¹ s⁻¹.

For the molecule `CC1(C)S[C@@H]2[C@H](NC(=O)[C@H](N)c3ccc(O)cc3)C(=O)N2[C@H]1C(=O)O` [AMOXICILLIN], the MIC in the data set on Escherichia coli [3] was at most 2 µg/mL; against Escherichia coli [4] it was 2050 µg/mL (≈ 5600 µM); against Escherichia coli [5] it was 2050 µg/mL (≈ 5600 µM); against Escherichia coli [6] it was 512 µg/mL (≈ 1400 µM); in the data set with Escherichia coli [11], at most 2 µg/mL; in the data set with Escherichia coli [12] it was 8 µg/mL. In addition, the MIC in the data set with Escherichia coli [13] is above 64 µg/mL; with Escherichia coli [14], 64 µg/mL. Moreover, in the data set with Escherichia coli [1], the Km came out at 101 µM. For the same molecule, in the data set with Escherichia coli [1], the kcat was found to be 1040 s⁻¹. Also, in the data set with Escherichia coli [2], the specificity constant (kcat/Km) was determined as 10.4 µM⁻¹ s⁻¹.

For the molecule `C[C@H]1[C@H](NC(=O)/C(=N\OC(C)(C)C(=O)O)c2csc(N)n2)C(=O)N1S(=O)(=O)O` [AZTREONAM], the MIC in the data set on Escherichia coli [5] and against Escherichia coli [6] was 0.03 µg/mL (≈ 0.0689 µM) throughout.

Regarding `CC(=O)OCC1=C(C(=O)O)N2C(=O)[C@@H](NC(=O)Cc3cccs3)[C@H]2SC1` [CEPHALOTHIN], the minimum inhibitory concentration (MIC) against Escherichia coli [3] was determined as 1 µg/mL (≈ 2.52 µM); against Escherichia coli [4], 16 µg/mL (≈ 40.4 µM); in the data set on Escherichia coli [5], 8 µg/mL (≈ 20.2 µM); against Escherichia coli [6], 8 µg/mL (≈ 20.2 µM). In the data set with Escherichia coli [1], the Km is 169 µM. Moreover, in the data set with Escherichia coli [1], the kcat came to 4 s⁻¹. Besides, the kcat/Km in the data set on Escherichia coli [2] is 0.02 µM⁻¹ s⁻¹.

On to `CO/N=C(\C(=O)N[C@@H]1C(=O)N2C(C(=O)O)=C(COC(C)=O)CS[C@H]12)c1csc(N)n1` [CEFOTAXIME], for which the minimum inhibitory concentration (MIC) against Escherichia coli [3] was at most 0.015 µg/mL; in the data set with Escherichia coli [4], 0.06 µg/mL (≈ 0.132 µM); against Escherichia coli [5], 0.06 µg/mL (≈ 0.132 µM); with Escherichia coli [6], 0.125 µg/mL (≈ 0.274 µM). The catalytic constant (kcat) in the data set on Escherichia coli [1] was below 0.1 s⁻¹.

Take `CC1(C)S[C@@H]2[C@H](NC(=O)[C@H](C(=O)O)c3ccsc3)C(=O)N2[C@H]1C(=O)O` [TICARCILLIN]: the MIC in the data set with Escherichia coli [3] is at most 2 µg/mL; in the data set on Escherichia coli [4], 1020 µg/mL (≈ 2660 µM); in the data set on Escherichia coli [5], above 4100 µg/mL; in the data set on Escherichia coli [6], above 4100 µg/mL. In addition, in the data set with Escherichia coli [1], the Km stood at 83 µM. For the same molecule, in the data set on Escherichia coli [1], the turnover number (kcat) was found to be 216 s⁻¹. Also, the catalytic efficiency (kcat/Km) in the data set on Escherichia coli [2] amounted to 2.5 µM⁻¹ s⁻¹.

Consider `CC(C)(O/N=C(\C(=O)N[C@@H]1C(=O)N2C(C(=O)[O-])=C(C[n+]3ccccc3)CS[C@H]12)c1csc(N)n1)C(=O)O` [CEFTAZIDIME], for which the minimal inhibitory concentration (MIC) against Escherichia coli [3] is 0.06 µg/mL (≈ 0.11 µM); with Escherichia coli [4] it was 0.5 µg/mL (≈ 0.915 µM); against Escherichia coli [5], 0.25 µg/mL (≈ 0.457 µM); with Escherichia coli [6] it was 0.25 µg/mL (≈ 0.457 µM). In addition, in the data set on Escherichia coli [1], the turnover number (kcat) is below 0.1 s⁻¹.

B1: Beta-lactamase SHV-1 (Escherichia coli), P0AD63 (protein)
chain: MRYIRLCIISLLATLPLAVHASPQPLEQIKLSESQLSGRVGMIEMDLASGRTLTAWRADERFPMMSTFKVVLCGAVLARVDAGDEQLERKIHYRQQDLVDYSPVSEKHLADGMTVGELCAAAITMSDNSAANLLLATVGGPAGLTAFLRQIGDNVTRLDRWETELNEALPGDARDTTTPASMAATLRKLLTSQRLSARSQRQLLQWMVDDRVAGPLIRSVLPAGWFIADKTGAGERGARGIVALLGPNNKAERIVVIYLRDTPASMAERNQQIAGIGAALIEHWQR
As to B1, the Km amounted to 40 µM in [15]; 23 µM in data set [17]; 11 µM in data set [18]; 31 µM in data set [19]; 24 µM in [20]. In addition, the kcat was 128 s⁻¹ in data set [15]; below 0.1 s⁻¹ in data set [16]; 1940 s⁻¹ in [17]; 220 s⁻¹ in data set [18]; 1490 s⁻¹ in data set [20]; below 0.1 s⁻¹ in [21]. For the same molecule, the kcat/Km was 84.2 µM⁻¹ s⁻¹ in data set [22], 20 µM⁻¹ s⁻¹ in data set [23], 33.7 µM⁻¹ s⁻¹ in [24] and 62.1 µM⁻¹ s⁻¹ in data set [25].
